From the METLIN SMRT retention time set (Domingo-Almenara et al. 2019)

Test: gradient 5% acetonitrile 3 min, to 50% in 2 min, to 85% in 15 min, held 3 min, 100 µL/min
Settings: column: Zorbax Extend-C18 2.1 x 50 mm; eluents: water / acetonitrile, 0.1% formic acid
Outline: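 Data were gathered over 3 months by HPLC coupled to a quadrupole time-of-flight mass spectrometer, operated in positive and negative ionization mode. Mixtures of ~100 pure standards ran on a Zorbax Extend-C18 column (2.1 × 50 mm, 1.8 μm) at 100 μL/min, with water and acetonitrile each containing 0.1% formic acid and dead and dwell volumes of 40 μL and 900 μL. Retention time was read from adduct peaks picked by computer and checked manually.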

Structure (SMILES): CS(=O)(=O)N1CCCN(C(=O)c2ccccc2)CC1
- RP-LC retention time: 638 s

Structure (SMILES): Cc1ccc2c(Nc3ccc(C)c(F)c3)c(C(=O)N3CCOCC3)cnc2n1
- RP-LC retention time: 599 s

Structure (SMILES): Cn1nc(N)c2ncc(C(Cl)(Cl)Cl)nc21
- RP-LC retention time: 876 s

Structure (SMILES): Cc1nc2cccnc2n1CC1CCCN(S(=O)(=O)Cc2ccccc2)C1 (stereo not given)
- RP-LC retention time: 654 s

Structure (SMILES): Cc1ccsc1C(=O)NC1(c2nc(-c3cnccn3)no2)CCCCC1
- RP-LC retention time: 806 s

Structure (SMILES): O=c1c2sccc2n(Cc2nc(-c3ccc(F)cc3)no2)c(=O)n1-c1cccc(F)c1
- RP-LC retention time: 970 s

Structure (SMILES): CCCOc1ccc(Br)cc1-c1cc(-c2ccc(Cl)cc2)[nH]c1-c1ccncc1
- RP-LC retention time: 1040 s

Structure (SMILES): COCc1cc(=O)n(CC(=O)Nc2ccc(C)c(C)c2)c(N)n1
- RP-LC retention time: 647 s

Structure (SMILES): COc1ccc2[nH]cc(CCN3CC(C(=O)Nc4ccccc4)CC3=O)c2c1 (stereo not given)
- RP-LC retention time: 748 s

Structure (SMILES): O=C(O)CCCNS(=O)(=O)c1ccc2ccccc2c1
- RP-LC retention time: 717 s

Structure (SMILES): Cc1ccc(S(=O)(=O)N2CCC3(CC2)NCCN=C3NCc2cc(F)cc(F)c2)cc1C
- RP-LC retention time: 798 s

Structure (SMILES): CC(C(=O)NCCSc1nncn1C)n1nnc2ccccc2c1=O (stereo not given)
- RP-LC retention time: 578 s

Structure (SMILES): CCN1CCC(N(Cc2ccc3c(c2)OCO3)C(=O)Nc2ccc(F)cc2)CC1
- RP-LC retention time: 656 s

Structure (SMILES): COc1ccc(Br)c(C(=O)Nc2ccc3c(c2)C(=O)NCC3)c1
- RP-LC retention time: 672 s

Structure (SMILES): CCN1CCN(c2cc(C)c3cc(NC(=S)NCc4ccc5c(c4)OCO5)ccc3n2)CC1
- RP-LC retention time: 590 s

Structure (SMILES): CSc1ccccc1CN1CCC(CNC(=O)C(=O)Nc2ccon2)CC1
- RP-LC retention time: 558 s

Structure (SMILES): Cc1noc(C2CN(C(=O)Nc3ccc(C)c(C)c3)CC23CCOCC3)n1 (stereo not given)
- RP-LC retention time: 768 s

Structure (SMILES): CCCNC(=O)C1CCCN(c2ccc(SCC(=O)Nc3ccccc3Cl)nn2)C1 (stereo not given)
- RP-LC retention time: 617 s

Structure (SMILES): CCCn1c(=O)c(N2CCN(C(=O)C3CC3)CC2)nc2ccccc21
- RP-LC retention time: 912 s

Structure (SMILES): COc1cccc(-c2noc(Cc3nnc(-c4cc(C)cc(C)c4)o3)n2)c1OC
- RP-LC retention time: 1060 s

Structure (SMILES): COC(=O)c1cn(CC(=O)Nc2cc(OC)ccc2OC)c2ccccc12
- RP-LC retention time: 946 s

Structure (SMILES): CC(C)Cn1c(=O)c(C(=O)NC2CCN(Cc3ccccc3)CC2)nc2cccnc21
- RP-LC retention time: 670 s

Structure (SMILES): CC(C)Cn1nc(CNC(=O)c2ccco2)c2ccccc21
- RP-LC retention time: 852 s

Structure (SMILES): COc1ccc(-c2nc3ccccn3c2Nc2ccccc2C)cc1
- RP-LC retention time: 721 s

Structure (SMILES): O=C(Nc1ccc(F)cc1F)N1CCN(Cc2nc3cc(Cl)ccc3o2)CC1
- RP-LC retention time: 763 s

Structure (SMILES): O=C1c2ccccc2C(=O)N1CC(=O)N(Cc1ccccc1)c1cccc([N+](=O)[O-])c1
- RP-LC retention time: 916 s

Structure (SMILES): COc1ccc(CNC(=O)Nc2ccc(-c3nc(-c4cc(C)ccc4C)co3)cc2)cc1
- RP-LC retention time: 1200 s

Structure (SMILES): CCNc1nc(N2CCCC2)nc(-n2cnc(SC)n2)n1
- RP-LC retention time: 885 s

Structure (SMILES): CCOC(=O)N1CCN(c2cc(C(=O)O)c3cc(NC(=O)c4ccccc4F)ccc3n2)CC1
- RP-LC retention time: 628 s

Structure (SMILES): Cn1c(CNC(=O)c2cccc(N3CCNC(c4ccccc4)C3)n2)nc2ccccc21 (stereo not given)
- RP-LC retention time: 573 s

Structure (SMILES): CCNC(=O)N1CCC(c2noc(-c3ccccn3)n2)C1 (stereo not given)
- RP-LC retention time: 594 s

Structure (SMILES): CCc1nc(-c2cccc(NC(=O)c3cncc(Br)c3)c2)no1
- RP-LC retention time: 926 s

Structure (SMILES): CCNC(=O)c1cc2cc(Cl)ccc2[nH]1
- RP-LC retention time: 806 s

Structure (SMILES): Cn1nc(N2CCCC(NS(=O)(=O)Cc3ccccc3)C2)ccc1=O (stereo not given)
- RP-LC retention time: 702 s

Structure (SMILES): CCc1nc(OCC(=O)N(C)c2ccccc2)c2ccccc2n1
- RP-LC retention time: 756 s

Structure (SMILES): Cc1ncc2c(SCC(=O)Nc3ccc(Br)cc3)ncnc2n1
- RP-LC retention time: 578 s

Structure (SMILES): O=C(c1cnccn1)N1CC(c2nc(CCOCC3CCCC3)no2)C1
- RP-LC retention time: 601 s

Structure (SMILES): CCOC(=O)C1CCN(c2ncnc3c2cnn3-c2ccc(OC)cc2)CC1
- RP-LC retention time: 952 s

Structure (SMILES): CCc1ccc(CNC(=O)C2CCN(C(=O)c3ncn4c3COC(c3ccc(F)cc3)C4)CC2)cc1 (stereo not given)
- RP-LC retention time: 846 s

Structure (SMILES): CCn1cc(CCNC(=O)C2CCCC2)c2cccnc21
- RP-LC retention time: 654 s

Structure (SMILES): O=[N+]([O-])c1ccc(-c2nc(NCCCO)c3ccccc3n2)cc1
- RP-LC retention time: 595 s

Structure (SMILES): Cc1nc(-c2nnc(NC(=O)C3CCN(S(C)(=O)=O)CC3)o2)cs1
- RP-LC retention time: 572 s

Structure (SMILES): Cc1cccc2sc(NC(=O)CNC(=O)c3ccc(=O)[nH]c3)nc12
- RP-LC retention time: 613 s

Structure (SMILES): O=C(NCCc1cccs1)C1CCN(Cc2cc3ccccc3n2Cc2cccc(Cl)c2)CC1
- RP-LC retention time: 833 s

Structure (SMILES): Cc1ccc(-c2noc(-c3cccc(S(=O)(=O)Nc4ccc5c(c4)OCCO5)c3)n2)cc1
- RP-LC retention time: 1140 s

Structure (SMILES): CC(C)S(=O)(=O)c1cccc(C(=O)Nc2nc(-c3cc([N+](=O)[O-])cs3)cs2)c1
- RP-LC retention time: 914 s

Structure (SMILES): O=C1CC(C(=O)N2CCc3ccccc3C2)CN1CCc1c[nH]c2ccc(F)cc12 (stereo not given)
- RP-LC retention time: 804 s

Structure (SMILES): Oc1ccc2c(ccc3[nH]cnc32)c1
- RP-LC retention time: 622 s

Structure (SMILES): CCN1CCN(C(=O)CSc2nccnc2Sc2ccccc2)CC1
- RP-LC retention time: 640 s

Structure (SMILES): COc1ccc(CCNC(=O)CSc2ncnc3c2nnn3C)cc1OC
- RP-LC retention time: 628 s

Structure (SMILES): CCN(c1ccccc1)S(=O)(=O)c1cc(-c2[nH]ncc2C(=O)N2CCCCC2)oc1C
- RP-LC retention time: 822 s

Structure (SMILES): Cc1ccc(CNC(=O)CCNc2c(-c3ccccc3C)nc3cnccn23)o1
- RP-LC retention time: 631 s

Structure (SMILES): CCc1noc([C@@H]2CC(F)(F)CN2C(=O)c2occc2C)n1
- RP-LC retention time: 840 s

Structure (SMILES): CCCn1cc(CCNC(=O)Nc2cccc(Cl)c2C)c2cccnc21
- RP-LC retention time: 889 s

Structure (SMILES): COc1cc(NC(C)=O)c(Cl)cc1C(=O)NCCc1c[nH]c2ccc(C)cc12
- RP-LC retention time: 831 s

Structure (SMILES): O=c1n(Cc2ccc3c(c2)OCO3)nc2c(S(=O)(=O)N3CCCCC3)cccn12
- RP-LC retention time: 828 s

Structure (SMILES): Cc1cnc(C(=O)N2CCC(N3C(=O)C(OCC4CC4)C34CCOCC4)CC2)cn1 (stereo not given)
- RP-LC retention time: 618 s

Structure (SMILES): CC1CCN(C(=O)c2cn(-c3ccc(S(=O)(=O)N4CCCC(C)C4)cn3)cn2)CC1 (stereo not given)
- RP-LC retention time: 954 s

Structure (SMILES): O=C(CSc1nc2ccccc2o1)NCCn1nc(-c2ccco2)ccc1=O
- RP-LC retention time: 674 s

Structure (SMILES): CC(C)NC(=O)Cn1nc2c3cc(-c4ccc(C(C)C)cc4)nn3ccn2c1=O
- RP-LC retention time: 911 s

Structure (SMILES): CCOCCCNC(=O)C1(C)Cn2c(ccc2-c2ccco2)C(=O)N1c1ccc(OC)cc1 (stereo not given)
- RP-LC retention time: 791 s

Structure (SMILES): COc1ccc(Cl)cc1NC(=O)Cn1ccc2ccc(-c3nnc(C)o3)cc21
- RP-LC retention time: 898 s

Structure (SMILES): C=CCNc1nc(-c2ccc([N+](=O)[O-])cc2)nc2ccccc12
- RP-LC retention time: 786 s

Structure (SMILES): CC[C@H]1[C@@H]2C[C@H]3[C@@H]4N(C)c5ccccc5[C@]45C[C@@H]([C@H]2[C@H]5O)N3[C@@H]1O
- RP-LC retention time: 652 s

Structure (SMILES): O=C(Cc1ccccc1F)N1CCc2cc(-c3ccno3)ccc21
- RP-LC retention time: 961 s

Structure (SMILES): COc1ccccc1-c1nc(Cn2nnc(-c3nc(-c4ccc(SC)cc4)no3)c2C)c(C)o1
- RP-LC retention time: 1180 s

Structure (SMILES): CCCN1C(=O)c2c(C(=O)NCCc3ccccc3)ncn2CC1(C)C(=O)NC1CCCC1 (stereo not given)
- RP-LC retention time: 860 s

Structure (SMILES): CC(=O)N1CCc2ccc(NC(=O)Nc3ccccc3Cl)cc21
- RP-LC retention time: 755 s

Structure (SMILES): Cc1cc2c(N3CCCC(C(=O)N4CCN(c5ccc(F)cc5)CC4)C3)nccc2s1 (stereo not given)
- RP-LC retention time: 726 s

Structure (SMILES): Cc1ccc2cc(CCC(=O)NCCc3ccncc3)c(=O)[nH]c2c1
- RP-LC retention time: 589 s

Structure (SMILES): CCN1CCN(C(=O)Cn2nc(C)c3sc(-c4ccccc4)nc3c2=O)CC1
- RP-LC retention time: 604 s

Structure (SMILES): O=C(Cc1csc(-c2ccccc2)n1)Nc1nc(-c2cccc(Br)c2)cs1
- RP-LC retention time: 1270 s

Structure (SMILES): CSc1cccc(NC(=O)Cn2ncc3c(c2=O)N(CC2CC2)C(=O)CS3)c1
- RP-LC retention time: 1190 s

Structure (SMILES): CCC(=O)Nc1nc(-c2ccccc2)cs1
- RP-LC retention time: 836 s

Structure (SMILES): O=C(Nc1ccc2c(c1)OCO2)c1cn(-c2cc(N3CCCCC3)ncn2)cn1
- RP-LC retention time: 936 s

Structure (SMILES): O=C(C1=NN(CCc2ccccc2)c2ccccc2S1(=O)=O)N1CCCCCC1
- RP-LC retention time: 1020 s

Structure (SMILES): CN(C)C(CNS(=O)(=O)/C=C/c1ccccc1)c1cn(C)c2ccccc12 (stereo not given)
- RP-LC retention time: 602 s

Structure (SMILES): COc1ccccc1NC(=O)N1CCCC1c1nc(-c2ccccc2C)no1 (stereo not given)
- RP-LC retention time: 1080 s

Structure (SMILES): Cc1ccc(N2C(=O)CN(S(C)(=O)=O)CC2(C)C(=O)NC2CCCCCC2)cc1Cl (stereo not given)
- RP-LC retention time: 946 s

Structure (SMILES): CCCNC(=O)CCC1CCN(S(=O)(=O)c2ccccc2)CC1
- RP-LC retention time: 784 s

Structure (SMILES): O=S(=O)(Nc1ccc(F)c(F)c1)c1c[nH]c2ncccc12
- RP-LC retention time: 739 s

Structure (SMILES): O=C(NCc1ccco1)C1CCCN(c2ccc(=O)n(-c3cccc(Cl)c3)n2)C1 (stereo not given)
- RP-LC retention time: 808 s

Structure (SMILES): COc1ccccc1-c1nc(C2CC(=O)N(c3ccc(F)c(Cl)c3)C2)no1 (stereo not given)
- RP-LC retention time: 1020 s

Structure (SMILES): Cc1cc(C)n(-c2ncnc3c2cnn3-c2ccc(F)cc2)n1
- RP-LC retention time: 1420 s

Structure (SMILES): Cc1ccc(NC(=O)Nc2nccn(-c3ccc(Br)cc3)c2=O)cc1F
- RP-LC retention time: 1080 s

Structure (SMILES): CCOc1ccc(NC(=O)Cc2cn(C)c3ncccc23)cc1
- RP-LC retention time: 712 s

Structure (SMILES): COc1ccc(OCc2nc(-c3ccc(S(=O)(=O)N4CCOCC4)cc3)no2)cc1
- RP-LC retention time: 1000 s

Structure (SMILES): O=C(NC1CCN(c2ccc(F)cc2)C1=O)c1ccccc1C(F)(F)F (stereo not given)
- RP-LC retention time: 823 s

Structure (SMILES): O=C(CCOc1ccccc1)NCc1ccccc1
- RP-LC retention time: 759 s

Structure (SMILES): CC(NC(=O)C1(c2ccc(NS(C)(=O)=O)cc2)CCCCC1)c1ccc(F)cc1 (stereo not given)
- RP-LC retention time: 952 s
